Results: ChEMBL document CHEMBL6096728, “Simultaneous Induction of Immunogenic Pyroptosis and PD-L1 Downregulation by One Single Photosensitizer for Synergistic Cancer Photoimmunotherapy” (J Med Chem, 2025)
Active and inactive are the calls of the source. The rule behind the calls is not given here.

Assays:
MDA-MB-231 [1] = experiment: Induction of pyroptosis in human MDA-MB-231 cells assessed as upregulation of caspase-3 expression level at 0.1 to 0.5 uM preincubated with compound for 12 hrs followed by light irradiation of 20 mW.cm/2 at 400 to 700nm for 10 mins by Western blot analysis; format: functional, cell-based; conditions: dose 0.1-0.5 µM
[2] = Induction of singlet oxygen production in acetonitrile solution assessed as decrease in ABDA absorption under LED light irradiation at 20 mW.cm/2 measured upto 30 mins by microplate reader analysis; format: functional
[3] = Drug uptake in mouse 4T1 cells assessed as increase in fluorescence intensity at 2.5 uM measured after 10 mins by flow cytometry analysis; format: ADME, cell-based; conditions: 4t1, 10 min
MDA-MB-231 [4] = experiment: Induction of intracellular ROS generation in human MDA-MB-231 cells assessed as increase in fluorescence intensity at 0.1 uM preincubated for 2 hrs followed by compound washout further incubated with DCFH-DA probe for 30 mins under light irradiation of 20 mW.cm/2 at 400 to 700nm measured after 10 mins by flow cytometry analysis; format: functional, cell-based
[5] = Phototoxicity against human MDA-MB-231 cells preincubated for 24 hrs followed by light irradiation of 20 mW.cm/2 at 400 to 700nm for 10 mins under hypoxia condition by CCK-8 method; format: functional, cell-based; conditions: MDA-MB-231, light or radiation study
MDA-MB-231 [6] = experiment: Induction of cell death in human MDA-MB-231 cells assessed as increase in red fluorescence at 0.5 uM incubated for 24 hrs followed by light irradiation of 20 mW.cm/2 at 400 to 700nm for 10 mins by Calcein-AM/PI staining based analysis; format: functional
4T1 [7] = experiment: Induction of cell death in mouse 4T1 cells assessed as increase in red fluorescence at 0.5 uM incubated for 24 hrs followed by light irradiation of 20 mW.cm/2 at 400 to 700nm for 10 mins by Calcein-AM/PI staining based analysis; format: functional
4T1 [8] = experiment: Induction of cell death in mouse 4T1 cells assessed as decrease in green fluorescence at 0.5 uM incubated for 24 hrs followed by light irradiation of 20 mW.cm/2 at 400 to 700nm for 10 mins by Calcein-AM/PI staining based analysis; format: functional
4T1 [9] = experiment: Induction of pyroptosis in mouse 4T1 cells assessed as cell swelling at 0.5 uM preincubated with compound for 4 hrs followed by light irradiation of 20 mW.cm/2 at 400 to 700nm for 10 mins by confocal fluorescence microscopy analysis; format: functional, cell-based
4T1 [10] = experiment: Induction of pyroptosis in mouse 4T1 cells assessed as appearance of large bubbles in cell at 0.5 uM preincubated with compound for 4 hrs followed by light irradiation of 20 mW.cm/2 at 400 to 700nm for 10 mins by confocal fluorescence microscopy analysis; format: functional, cell-based
MDA-MB-231 [11] = experiment: Induction of pyroptosis in human MDA-MB-231 cells assessed as effect on GSDMD-N expression level at 0.1 to 0.5 uM preincubated with compound for 12 hrs followed by light irradiation of 20 mW.cm/2 at 400 to 700nm for 10 mins by Western blot analysis; format: functional, cell-based; conditions: dose 0.1-0.5 µM
4T1 [12] = experiment: Downregulation of PD-L1 expression level in mouse 4T1 cells at 0.1 to 0.5 uM incubated for 24 hrs under light irradiation of 20 mW.cm/2 at 400 to 700nm for 10 mins by Western blot analysis; format: functional, cell-based; conditions: dose 0.1-0.5 µM
MDA-MB-468 = experiment: Downregulation of PD-L1 expression level in human MDA-MB-468 cells at 0.1 to 0.5 uM incubated for 24 hrs under light irradiation of 20 mW.cm/2 at 400 to 700nm for 10 mins by Western blot analysis; format: functional, cell-based; conditions: dose 0.1-0.5 µM
MDA-MB-231 [13] = experiment: Downregulation of PD-L1 expression level in human MDA-MB-231 cells at 0.5 uM preincubated with MG-132 followed by compound addition and measured after 24 hrs under light irradiation of 20 mW.cm/2 at 400 to 700nm for 10 mins by Western blot analysis; format: functional, cell-based
MDA-MB-231 [14] = experiment: Photocytotoxicity in human MDA-MB-231 cells assessed as reduction in 3D multicellular spheroids diameter at 0.5 to 1 uM incubated for 24 hrs under light irradiation of 50 mW.cm/2 at 400 to 700nm measured after 10 mins in normoxia condition; format: functional, cell-based; conditions: dose 0.5-1 µM
[15] = Drug accumulation in BALB/c mouse tumor implanted with mouse 4T1 cells assessed as increase in fluorescence intensity at 25 mg/kg, iv measured after 0 to 3 hrs by imaging based analysis; format: ADME, organism-based, Neoplasm; conditions: in vivo, time 0-3 hrs
[16] = Drug accumulation in BALB/c mouse tumor implanted with mouse 4T1 cells assessed as increase in fluorescence intensity at 25 mg/kg, iv measured after 3 hrs by imaging based analysis; format: ADME, organism-based, Neoplasm; conditions: in vivo
[17] = Toxicity in BALB/c mouse assessed as effect on heart at 25 mg/kg, iv measured after 14 days under light irradiation of 300 mW.cm/2 at 400 to 700nm measured after 5 mins by H and E staining based analysis; format: organism-based; conditions: in vivo, 336 h, 0.7 µM, time 14 day
[18] = Toxicity in BALB/c mouse assessed as effect on lung at 25 mg/kg, iv measured after 14 days under light irradiation of 300 mW.cm/2 at 400 to 700nm measured after 5 mins; format: organism-based; conditions: in vivo, 336 h, 0.7 µM, time 14 day
[19] = Toxicity in BALB/c mouse assessed as effect on WBC at 25 mg/kg, iv measured after 14 days; format: organism-based; conditions: in vivo, 336 h, time 14 day
[20] = Toxicity in BALB/c mouse assessed as effect on hemoglobin at 25 mg/kg, iv measured after 14 days; format: organism-based; conditions: in vivo, 336 h, time 14 day
[21] = Toxicity in BALB/c mouse assessed as effect on platelets at 25 mg/kg, iv measured after 14 days; format: organism-based; conditions: in vivo, 336 h, time 14 day
4T1 [22] = experiment: Antitumor immunity against mouse 4T1 cells implanted in BALB/c mouse model assessed as upregulation of proportion of macrophage in lymph node at 25 mg/kg, iv measured after 14 days under light irradiation of 300 mW.cm/2 at 400 to 700nm measured after 5 mins by flow cytometry analysis; format: functional, organism-based; conditions: time 14.0 day
4T1 [23] = experiment: Antitumor immunity against mouse 4T1 cells implanted in BALB/c mouse model assessed as increase in IL-6 secretion in tumors at 25 mg/kg, iv measured after 14 days under light irradiation of 300 mW.cm/2 at 400 to 700nm measured after 5 mins by ELISA method; format: functional, organism-based; conditions: time 14.0 day
4T1 [24] = experiment: Antitumor immunity against mouse 4T1 cells implanted in BALB/c mouse model assessed as increase of CD8+ T cells in lymph node at 25 mg/kg, iv measured after 14 days under light irradiation of 300 mW.cm/2 at 400 to 700nm measured after 5 mins […]; format: functional, organism-based; conditions: time 14.0 day
4T1 [25] = experiment: Antitumor immunity against mouse 4T1 cells implanted in BALB/c mouse model assessed as increase in proportion of tumor infiltrating CD4+ T cells at 25 mg/kg, iv measured after 14 days under light irradiation of 300 mW.cm/2 at 400 to 700nm measured after 5 mins by immunofluorescence analysis; format: functional, organism-based; conditions: time 14.0 day

**Q.** Which results are given for `O=c1cc2sc3cc(N4CCNCC4)ccc3nc-2c2ccccc12`?
**A.** Activity (MDA-MB-231 [1]): Active; Activity [2]: Active; Drug uptake [3]: Active; Activity (MDA-MB-231 [4]): Active; IC50 [5]: 303 nM; Activity (MDA-MB-231 [6]): Active; Activity (4T1 [7]): Active; Activity (4T1 [8]): Active; Activity (4T1 [9]): Active; Activity (4T1 [10]): Active; Activity (MDA-MB-231 [11]): inactive; Activity (4T1 [12]): Active; Activity (MDA-MB-468): Active; Activity (MDA-MB-231 [13]): inactive; Activity (MDA-MB-231 [14]): Active; Drug uptake [15]: Active; Drug uptake [16]: Active; Activity [17]: Non-toxic; Activity [18]: Non-toxic; Activity [19]: Non-toxic; Activity [20]: Non-toxic; Activity [21]: Non-toxic; Activity (4T1 [22]): Active; Activity (4T1 [23]): Active; Activity (4T1 [24]): Active; Activity (4T1 [25]): Active
